Patent US11414439B2, “Modulators of cystic fibrosis transmembrane conductance regulator, pharmaceutical compositions, methods of treatment, and process for making the modulator” (Vertex Pharmaceuticals Incorporated, priority 2018, dated 2022)

test system: CFTR; assay: CFTR modulating activity (Table 6; one or more of the disclosed assays, e.g. enteroid membrane potential dye assay); format: cell-based, human; settings: generated using one or more of the assays disclosed herein; note: key: Active; ND-not detected
Excerpt: Human intestinal epithelial enteroid cells may be obtained from the Hubrecht Institute for Developmental Biology and Stem Cell Research, Utrecht, The Netherlands and expanded in T-Flasks as previously described (Dekkers J F, Wiegerinck C L, de Jonge H R, Bronsveld I, Janssens H M, de Winter-de Groot K M, Brandsma A M, de Jong N W M, Bijvelds M J C, Scholte B J, Nieuwenhuis E E S, van den Brink S, Clevers H, van der Ent C K, Middendorp S and M Beekman J M. A functional CFTR assay using primary cystic fibrosis intestinal organoids. Nat Med. 2013 July; 19(7):939-45).
Cells may be recovered in cell recovery solution, collected by centrifugation at 650 rpm for 5 min at 4° C., resuspended in TryPLE and incubated for 5 min at 37° C. Cells can then be collected by centrifugation at 650 rpm for 5 min at 4° C. and resuspended in IEMM containing 10 μM ROCK inhibitor (RI). The cell suspension is then passed through a 40 μm cell strainer and resuspended at 1×10^6 cells/mL in IEMM containing 10 μM RI. Cells may be seeded at 5000 cells/well into multi-well plates and incubated for overnight at 37° C., 95% humidity and 5% CO2 prior to assay.
Enteroid cells may be incubated with test compound in IEMM for 18-24 hours at 37° C., 95% humidity and 5% CO2. Following compound incubations, a membrane potential dye assay can be employed using a FLIPR Tetra to directly measure the potency and efficacy of the test compound on CFTR-mediated chloride transport following acute addition of 10 μM forskolin and 300 nM N-[2,4-bis(1,1-dimethylethyl)-5-hydroxyphenyl]-1,4-dihydro-4-oxoquinoline-3-carboxamide. Briefly, cells are washed 5 times in Bath 1 Buffer. Bath 1 Dye Solution is added and the cells are incubated for 25 min at room temperature. Following dye incubation, cells are washed 3 times in Chloride Free Dye Solution. Chloride transport is initiated by addition of Chloride Free Dye Stimulation Solution and the fluorescence signal is read for 15 min. The CFTR-mediated chloride transport for each condition may be determined from the AUC of the fluorescence response to acute forskolin and 300 nM N-[2,4-bis(1,1-dimethylethyl)-5-hydroxyphenyl]-1,4-dihydro-4-oxoquinoline-3-carboxamide stimulation.
Chloride transport may be expressed as a percentage of the chloride transport following treatment with one or more reference standards or positive controls. Suitable reference standards/controls include one or more of Compound II, Compound III, Compound IV, and Compound A. Compound A is:
Table 6 confirms CFTR modulating activity for representative compounds of the invention generated using one or more of the assays disclosed herein.

Compound | CFTR Modulating Activity
Cc1nn(C)cc1S(=O)(=O)NC(=O)c1ccc(-n2ccc(OCC(C)(C)C(F)(F)F)n2)nc1N1CC([Si](C)(C)C)CC1(C)C (single isomer, unassigned) [(2-8) Enantiomer 2] | Active
Cc1nn(C)cc1S(=O)(=O)NC(=O)c1ccc(-n2ccc(OCC(C)(C)C(F)(F)F)n2)nc1N1C[C@@H](C)CC1(C)[Si](C)(C)C (single isomer, unassigned) [(2-9) Stereoisomer 1] | Active
Cc1nn(C)cc1S(=O)(=O)NC(=O)c1ccc(-n2ccc([Si](C)(C)CCC(C)(C)C)n2)nc1N1C[C@@H](C)CC1(C)C [Compound (2-1), 6-[3-[3,3-Dimethylbutyl(dimethyl)silyl]pyrazol-1-yl]-N-(1,3-dimethylpyrazol-4-yl)sulfonyl-2-[(4S)-2,2,4-trimethylpyrrolidin-1-yl]pyridine-3-carboxamide] | Active
Cc1nn(C)cc1S(=O)(=O)NC(=O)c1ccc(-n2ccc(OCCC3([Si](C)(C)C)CC3)n2)nc1N1C[C@@H](C)CC1(C)C [Compound (2-2), N-(1,3-dimethylpyrazol-4-yl)sulfonyl-2-[(4S)-2,2,4-trimethylpyrrolidin-1-yl]-6-[3-[2-(1-trimethylsilylcyclopropyl)ethoxy]pyrazol-1-yl]pyridine-3-carboxamide] | Active
Cc1nn(C)cc1S(=O)(=O)NC(=O)c1ccc(-n2ccc(OC[Si](C)(C)C)n2)nc1N1C[C@@H](C)CC1(C)C [Compound (2-3), N-(1,3-Dimethylpyrazol-4-yl)sulfonyl-2-[(4S)-2,2,4-trimethylpyrrolidin-1-yl]-6-[3-(trimethylsilylmethoxy)pyrazol-1-yl]pyridine-3-carboxamide] | Active
Cc1nn(C)cc1S(=O)(=O)NC(=O)c1ccc(-n2ccc(OCC[Si](C)(C)C)n2)nc1N1C[C@@H](C)CC1(C)C [Compound (2-4), N-(1,3-dimethylpyrazol-4-yl)sulfonyl-2-[(4S)-2,2,4-trimethylpyrrolidin-1-yl]-6-[3-(2-trimethylsilylethoxy)pyrazol-1-yl]pyridine-3-carboxamide] | Active
Cc1nn(C)cc1S(=O)(=O)NC(=O)c1ccc([Si](C)(C)C)nc1N1C[C@@H](C)CC1(C)C [Compound (2-5), N-(1,3-dimethylpyrazol-4-yl)sulfonyl-2-[(4S)-2,2,4-trimethylpyrrolidin-1-yl]-6-trimethylsilyl-pyridine-3-carboxamide] | Active
Cc1nn(C)cc1S(=O)(=O)NC(=O)c1ccc(-n2ccc(OCCC[Si](C)(C)C)n2)nc1N1C[C@@H](C)CC1(C)C [Compound (2-6), N-(1,3-Dimethylpyrazol-4-yl)sulfonyl-2-[(4S)-2,2,4-trimethylpyrrolidin-1-yl]-6-[3-(3-trimethylsilylpropoxy)pyrazol-1-yl]pyridine-3-carboxamide] | Active
Cc1nn(C)cc1S(=O)(=O)NC(=O)c1ccc(-n2ccc([Si](C)(C)CCC(F)(F)F)n2)nc1N1C[C@@H](C)CC1(C)C [Compound (2-7), N-(1,3-Dimethylpyrazol-4-yl)sulfonyl-6-[3-[dimethyl(3,3,3-trifluoropropyl)silyl]pyrazol-1-yl]-2-[(4S)-2,2,4-trimethylpyrrolidin-1-yl]pyridine-3-carboxamide] | Active
Cc1nn(C)cc1S(=O)(=O)NC(=O)c1ccc(-n2ccc([Si](C)(C)C(C)(C)C)n2)nc1N1C[C@@H](C)CC1(C)C [Compound (2-10), 6-[3-[tert-Butyl(dimethyl)silyl]pyrazol-1-yl]-N-(1,3-dimethylpyrazol-4-yl)sulfonyl-2-[(4S)-2,2,4-trimethylpyrrolidin-1-yl]pyridine-3-carboxamide] | Active
Cc1nn(C)cc1S(=O)(=O)NC(=O)c1ccc(-n2ccc(OC[Si](C)(C)C(C)(C)C)n2)nc1N1C[C@@H](C)CC1(C)C [Compound (2-11), 6-[3-[[tert-Butyl(dimethyl)silyl]methoxy]pyrazol-1-yl]-N-(1,3-dimethylpyrazol-4-yl)sulfonyl-2-[(4S)-2,2,4-trimethylpyrrolidin-1-yl]pyridine-3-carboxamide] | Active
Cc1nn(C)cc1S(=O)(=O)NC(=O)c1ccc(-n2ccc([Si](C)(C)C)n2)nc1N1C[C@@H](C)CC1(C)C [Compound (2-12), N-(1,3-Dimethylpyrazol-4-yl)sulfonyl-2-[(4S)-2,2,4-trimethylpyrrolidin-1-yl]-6-(3-trimethylsilylpyrazol-1-yl)pyridine-3-carboxamide] | Active
